The record followed here is patent EP4473972A1, “COMBINATIONS COMPRISING AN ATR INHIBITOR WITH SYNERGISTIC EFFECT AGAINST GLIOMAS” (Eberhard-Karls-Universität Tübingen, priority 2023, dated 2024).

In experiment [1] the test system is GL261 cells. As to the kind of experiment: Cell cycle analysis (propidium iodide flow cytometry). The class given is cell-based, murine. To be noted: 72 h. Here is the method:
The inventors seeded the cells on day one and treated them on the next day. After 72 h, they detached the cells and stained them with propidium iodide solution (50 µg/mL propidium iodide (Thermo Fisher Scientific, Waltham, MA, US), 0.2% Triton X-100 (Roth, Karlsruhe, Germany), 100 µg RNase (Thermo Fisher Scientific, Waltham, MA, US), 1 g/L glucose in PBS (phosphate buffered saline) (Gibco, Carlsbad, CA, US). Flow cytometry was done using a MACSQuant Analyzer 10 (Miltenyi Biotec, Bergisch Gladbach, Germany). The inventors analyzed the acquired data with the FlowJo software (Beckton, Dickinson & Company, Franklin Lakes, NJ, US).
Background: Flow cytometry measures light scatter and fluorescence of single cells or particles in a stream.

In experiment [2] the test system is patient-derived glioblastoma microtumor models (PDM). The experiment is described as follows: Patient derived microtumors (PDM) viability, RealTime-Glo MT Cell Viability Assay. The experiment is classed as cell-based. To be noted: patient-derived microtumors (PDMs), 72 h. As for the experimental part:
PDMs were extracted from surgically resected, residual glioblastoma tissue as is known to the skilled person. The inventors treated the PDMs with indicated drug concentrations for 72 h and determined cell viability using RealTime-Glo MT Cell Viability Assay (Promega, Madison, Wl, US). Luminescence assay signal was measured using a multimode microplate reader (Tecan, Männedorf, Switzerland). Obtained luminescence units were background corrected and plotted as dose response curves using GraphPad Prism 9 software. The use of residual tissue after tumor resections was approved by the ethical board of the University Hospital Tübingen.

Experiment [3] has as its system LN229 cells. The experiment is described as follows: RNA-Sequencing (RNAseq). The experiment is classed as cell-based, human. As for the experimental part: (§1) For this, the inventors seeded the cells on day one and treated them on the next day with IC50 concentrations of AZD6738 for up to 72 h. They extracted the RNA using the Qiagen RNeasy Mini kit (Qiagen, Venlo, NL) according to manufacturer's protocol. For RNA sequencing, the inventors enriched the mRNA fraction using polyA capture from 200 ng of total RNA using the NEBNext Poly(A) mRNA Magnetic Isolation Module (NEB). They used the NEB Next Ultra II Directional RNA Library Prep Kit for Illumina (NEB) to prepare mRNA libraries according to manufacturer's instructions. The libraries were sequenced as paired-end 50 bp reads on an Illumina NovaSeq6000 (Illumina) with a sequencing depth of approximately 25 million clusters per sample. The inventors performed RNA raw data QC and processing using megSAP (version 0.2-135-gd002274) combined with ngs-bits package (version 2019_11-42-gflb98e63). To align the reads to the GRCh38 they used STAR v2.7.3a and alignment quality was analyzed using ngs-bits. Normalized read counts for all genes were obtained using Subread (v2.0.0) and edgeR (v3.26.6). The inventors used the R package "DESeq2" for further analyses. They defined differentially expressed genes (DEGs) as log2 fold-change (LFC) above or below |1| and p-adjusted < 0.01 as defined by Wald statistics. The inventors analyzed the resulting hits for KEGG pathway association using gProfiler. […] They re-aligned significant LRT genes with DEG results and analyzed them with gProfiler.

Experiment [4] concerns LNZ308 cells. The experiment is described as follows: RNA-Sequencing (RNAseq). The class given is cell-based, human. Here is the method:
as §1

In experiment [5] the test system is LN229 cells. As to the kind of experiment: DigiWest Multiplex Protein Analysis. To be noted: LN229, 72 h. The experiment is classed as cell-based, human. As for the experimental part: (§2) After 72 h of AZD6738 treatment, the inventors detached and counted the cells and subsequently snap froze them in liquid nitrogen. For protein preparation, they kept the cells on ice and added 20-30 µL of lysis buffer (LDS Lysis Buffer (Life Technologies, Carlsbad, CA, USA), supplemented with reducing agent (Thermo Fisher Scientific, Waltham, MA, USA) and protease- (Roche Diagnostics GmbH, Mannheim, Germany) and phosphatase-inhibitor (Roche)). Proteins were denatured by heating to 95°C for 10 min before the lysates were transferred to QiaShredder Eppendorf tubes (Eppendorf, Hamburg, Germany). After centrifugation (16,000g, 5 min, RT), eluates were stored at -80°C until further use. Protein quantification was performed using in-gel staining. 1 µL of each original lysate was diluted 1:10 (v/v) in lysis buffer. The respective aliquots were denatured for 10 mins at 70°C and 10 µL were run in a NuPAGE 4-12% Bis-Tris precast gel (Thermo Fisher Scientific) according to the manufacturer's instructions. The gel was washed with water and proteins were stained with BlueBandit (VWR, Darmstadt, Germany) for 1 h. The gel was de-stained over night with ddH2O before detection on a LI-COR (LI-COR, Bad Homburg, Germany) instrument. Analysis and protein quantification was performed using ImageStudio.
(§3) The DigiWest analysis was performed as described in the art. In brief, the inventors loaded 10 µg of cellular protein on an SDS-polyacrylamide gel and size-separated them using the commercial NuPAGE system (Life Technologies). Size-separated proteins were blotted onto a PVDF membrane and biotinylated on the membrane using NHS-PEG12-Biotin (50 µM) in PBST for 1 h. After drying of the membrane, the samples lanes were cut into 96 strips of 0.5 mm width using an automated cutting plotter (Silhouette America, West Orem, UT, USA) each corresponding to a defined molecular weight fraction. Each of the strips was placed in one well of a 96-well plate and 10 µl elution buffer (8 M urea, 1% Triton-X100 in 100 mM Tris-HCl pH 9.5) was added. The eluted proteins were diluted with 90 µl of dilution buffer (5% BSA in PBS, 0.02% sodium azide, 0.05% Tween-20) and each of the protein fractions was incubated with 1 distinct magnetic color-coded bead population (Luminex, Austin, USA) coated with neutravidin. The biotinylated proteins bind to the neutravidin beads such that each bead color represents proteins of one specific molecular weight fraction. All 96 protein loaded bead populations were mixed resulting in reconstitution of the original lane. Such a beadmix was sufficient for about 150 individual antibody incubations. Aliquots of the DigiWest bead-mixes (about 1/200th per well) were added to 96 well plates containing 50 µl assay buffer (Blocking Reagent for ELISA (Roche, Rotkreuz, Switzerland) supplemented with 0.2% milk powder, 0.05% Tween-20 and 0.02% sodium azide) and different diluted antibodies were added to the wells. After overnight incubation at 15°C in a shaker, the bead-mixes were washed twice with PBST and species-specific PE-labelled (Phycoerythrin) secondary antibodies (Dianova, Hamburg, Germany) were added and incubated for 1 hour at 23°C. Beads were washed twice prior to readout on a Luminex FlexMAP 3D.
(§4) For quantification of the antibody specific signals, we used the DigiWest Analyzer software; it automatically identifies peaks of appropriate molecular weight and calculates the peak area. Signal intensity was normalized to the total amount of protein loaded onto one lane. The software package MEV 4.9.0 was used for statistical analysis along with Graph Pad Prism (Version 9.0.0). For all statistical tests, a p-value <0.05 was considered significant.

For experiment [6], the system named is LNZ308 cells. As to the kind of experiment: DigiWest Multiplex Protein Analysis. As to conditions: LNZ308, 72 h. The class given is cell-based, human. Here is the method:
as §2, §3, §4

`C[C@@H]1COCCN1c1cc(C2([S@](C)(=N)=O)CC2)nc(-c2cc[nH]c3nccc2-3)n1` [AZD6738, ceralasertib]: in experiment [1], the cell cycle alterations result is “accumulation in S phase”. Besides, in experiment [2], the cell viability result is “dose-dependent reduction”. For the same compound, in experiment [3], the “PI3K-Akt signaling (KEGG pathway)” value is “downregulated” and the “p53 signaling (KEGG pathway)” value is reported as “strongly upregulated”. The “PI3K-Akt signaling (KEGG pathway)” value in experiment [4] is reported as “upregulated”. For the same compound, in experiment [5], the “CDC25C and pHistH3 (Ser10)” value is “downregulated”; the “Survivin (BIRC5)” value is reported as “upregulated”; the “p53, p21 and Bax” value was “upregulation”; the pAkt entry is given as “downregulation”. For the same compound, in experiment [6], the p16 result is reported as “accumulation” and the “pCDK2 (Thr160) protein levels” value is “reduced”.
